A short description of this assay: Corrosion testing of 316 steel coupons with acidic fluids. The following applies: for corrosion protection when used separately: alkyne alcohol or cinnamaldehyde alone in the inhibitor. From the text: Corrosion inhibitor compositions according to preferred embodiments of the present invention were exposed to corrosion testing. Various steel grades (stainless steel and carbon steel) were subjected to acid compositions comprising corrosion inhibitors according to the present invention against known corrosion inhibitors to the listed compositions for various periods of time at varying temperatures. A desirable corrosion inhibition result was one where the lb/ft2 corrosion number is at or below 0.05. More preferably, that number is at or below 0.02.
33% HCl; MEA in a 5.5:1 ratio and 50% HCl; MEA in a 5.5:1 ratio indicate the volume amount of the original concentration of a stock solution containing HCl and Monoethanolamine in a ratio of 5.5:1. The HCl loading of a 33% HCl; MEA in a 5.5:1 ratio is approximately 6.5% HCl. The HCl loading of 50% HCl; MEA in a 5.5:1 ratio is approximately 10% HCl.

Each structure is given as a SMILES string.

On to `CC(C)=CCCC(C)=CC=O` (racemic) [Citral, (±)-3,7-Dimethyl-2,6-octadienal], for which the prevention of pitting entry (higher temperatures (even 110° C. to 120° C.)) is given as “some effectiveness for the prevention of pitting”.
As to `O=CC=Cc1ccccc1` [cinnamaldehyde], the “corrosion protection when used separately” value is recorded as “did not provide corrosion protection sufficient”. The “film forming, protection of stainless steel” value (at these temperatures (90° C. to 120° C.)) was “effective film former”.
Turning to `C#CCO` [propargyl alcohol], the “corrosion protection when used separately” value is reported as “did not provide corrosion protection sufficient”.

The values are drawn from US12241021B2, “Method for fracking of simulation of hydrocarbon bearing formation” (Fluid Energy Group Ltd., priority 2018, dated 2025).
